Data reported in publication PMC5617480 (Oncotarget, 2017).

How the values were obtained:
hTERT and c-myc = test: Western blot and RT-PCR of hTERT and c-myc in BEL-7404 cells; type: cell-based, human; conditions: BEL-7404, 10 μM, 24 h, compared to complexes 4 and 5
Procedure: To further investigate the mechanism(s) how chiral platinum(II) complexes regulate telomerase activity, two genes (hTERT and c-myc) critically associated with telomerase activation were investigated. BEL-7404 cells were treated with chiral platinum(II) complexes 4–6 at 10 μM for 24 h, and then western blot and RT-PCR were performed to exam the expression of hTERT and c-myc at mRNA and protein levels. […] We further generated a GFP reporter system linked with c-myc or hTRET promotor which bears G4 DNA sequence. The reporter plasmids were transfected into BEL-7404 cells, and then the cells were treated with 10 μM chiral platinum(II) complexes for 24 h.
Apoptosis analysis c-myc antibody, or anti-β-actin primary antibody and the Apoptosis was detected by flow cytometric analysis corresponding secondary antibody were used to detect of annexin V staining. […] Then, cells were incubated with annexin V-FITC and PI for 1.0 h at Staining for SA-β-Gal activity was carried out room temperature in the dark and immediately analyzed according to Moore and Chen reports. […] The data are presented as biparametric After the long-term incubation with complexes 4–6, the dot plots showing PI red fluorescence vs annexin V-FITC growth medium was aspirated and the BEL-7404 cells green fluorescence. were fixed in 2% formaldehyde/0.2% glutaraldehyde for 15.0 min at room temperature. […]

[1] = test system: TRF1, mutp53, hTERT, TRF2, c-myc, and 53BP1; test: Western blot in BEL-7404 xenograft models; type: in vivo, BALB/c nude mice; conditions: 8 mg/kg and 4 mg/kg
Procedure: (E–H) In vivo tumor growth inhibition activity of complex 6 (4.0, 8.0 mg/kg/d) treated of BEL-7402 model with 4.0 and 8.0 mg/kg/d, comparing with cisplatin (2 mg/kg/2 days). (A) and (E). Changes in tumor volume between treatment groups (including complex 6 (4.0, 8.0 mg/kg/d), 5-FU (20 mg/kg/2 days) or cisplatin (2 mg/kg/2 days)) and vehicle (saline) group of BEL-7404 tumor-bearing mice and BEL-7402 tumor-bearing mice. Data of tumor growth were tracked by the mean tumor volume (mm^3) ± SD (n = 6) and calculated as percent TGI (tumor growth inhibition, %) values. (B and F) Relative body weight change by considering the body weight at the start of the treated group as 100%, the percent weight loss or gain was calculated on subsequent days of treatment. (C) and (G) Tumor weight between treatment groups and vehicle (saline) group of BEL-7404 tumor-bearing mice and BEL-7402 tumor-bearing mice. […] (I) The expression protein level of TRF1, mutp53, hTERT, TRF2, c-myc, and 53BP1 were analyzed by western blot in BEL-7404 xenograft models treated with 8 mg/kg and 4 mg/kg complex 6, and 20 mg/kg 5-FU, respectively. (J) The whole-BEL-7404 xenograft model extracts were prepared and analyzed by Western blot analysis using antibodies against TRF1, mutp53, hTERT, TRF2, c-myc, and 53BP1. […] Western blotting bands from three independent measurements were quantified with Image J. in (I). […]

cis-[PtCl2(S-(–)-FOA)] [complex 6]
expression of hTERT and c-myc at mRNA and protein levels (hTERT and c-myc): significantly attenuate
expression of mutp53, c-myc, and hTERT [1]: down-regulated
protein expression of TRF1, TRF2, and 53BP1 [1]: significantly up-regulated
